{"source": "patent US20140004079A1", "about": "“IN VIVO DENDRITIC CELL T[…]” (Agency for Science, Technology and Research, priority 2012, published 2014)", "assay_type_in_all_cases": "cell-based, human", "key": {"[1]": {"tested_on": "sorted APC populations from chronic HBV patients", "test": "Ex vivo antigen presentation assay: sorted APCs activated overnight, co-cultured with HBsAg-specific TCR redirected T cells, IFN-γ Elispot", "conditions": "for cross-presentation of circulating HBsAg (T cell activation): mDC, CD14 MN, CD16 MN or B cells of chronic HBV patients, short-term activation, HBsAg-specific TCR transduced T cells", "procedure": "Sorted APC populations; CD11c DC, CD141 DC, CD123 pDC, CD14 MN, CD16 MN and CD20 B cells were cultured overnight in media alone or under activating conditions +/−[…] recombinant HBsAg (Kindly provided by DynaVax). Cells were activated with 10 μg/ml polyI:C (TLR-3), 5 μM CpG ODN2216 (TLR-9), 1 μg/ml LPS (TLR-4), 5 μg/ml Imiquimod (TLR-7), 1 μg/ml ssRNA40 (TLR-8) (InvivoGen), 1000 U/ml IFN-α or 1000 U/ml IFN-γ (R&D systems). Following overnight incubation, APC populations were thoroughly washed and transferred to anti-IFN-γ coated Elispot plates and co-cultured with CD8 s183-TCR or s171-TCR redirected T cells at 5:1 E:T ratio (normally 5,000 APCs/well but as low as 1000 CD141 DC/well) for 24 h. APCs pulsed with 5 μg/ml HBs183-91(FLLTRILTI), HBs171-80 (FLGPLLVLQA) or HBc18-27 ([…]) peptide served as positive control for T cell activation. IFN-γ Elispot was performed as described previously in Tan et al 2008, using 5 μg/ml of 1-DIK for capture and 0.5 μg/ml 7B6-1-Biotin plus Streptavidin-ALP for detection (Mabtec) (Tan, A. T, Loggi, E., Boni, C., Chia, A. Gehring, A. J., Sastry, K. S., Goh, V., Fisicaro, P., Andreone, P., Brander, C., et al. 2008. Host ethnicity and virus genotype shape the hepatitis B virus-specific T-cell repertoire. J. Virol 82: 10986-10997). Elispot plates were developed and analyzed using CTL Immunospot analyzer. Cutoff values for positive responses were set according to cumulative data from healthy donors and HLA mismatched chronic HBV responses (data not shown). Wells were considered positive if responses were above 20 spot forming units/50,000 T cells.\nAPC populations were sorted from 7 HLA-A2+ chronic HBV patients or healthy donors to greater than 98% purity. TCR transduced T cells were then cultured at 5:1 effector:target ratio with each APC population (typically 5,000 APC/well for Elispot and 10,000 APC/well for intracellular cytokine staining) and T cell activation was monitored using IFN-γ intracellular cytokine staining or IFN-γ Elispot. For intracellular cytokine staining, cells were co-cultured overnight in V-bottom 96 well plates in 2 μg/ml brefeldin A. Cells were labeled with viability dye, stained with CD8-Horizon V500 (BD Biosciences) and fixed in cytofix/cytoperm (BD Biosciences). Cells were then stained with IFN-γ-Horizon V450 (BD Biosciences) to monitor T cell activation. As positive control, CD14 MN were pulsed with 5 μg/ml HBs183-91 or HBc18-27 peptide for 1 h and washed. IFN-γ Elispot was performed as described previously using 5 μg/ml of 1-DK1 for capture and 0.5 μg/ml 7B6-1-Biotin plus Streptavidin-ALP for detection (Mabtec). Wells were considered positive if responses were above 20 spot forming units/25,000 T cells. An HLA-A2+ healthy donor was included in each experiment to determine the background for each experiment. HLA-A2− donors were also tested to confirm specificity and restriction of the transduced T cells (data not shown)."}, "[2]": {"tested_on": "CD14 MN from chronic HBV patients", "test": "Cross-presentation of in vivo captured HBsAg by monocyte-derived DC from chronic HBV patients, IFN-γ elispot", "conditions": "moDC activated overnight, s183-TCR and s171-TCR CD8 T cells", "procedure": "(§1) CD14+ MN were isolated from healthy donors and chronic HBV patients by FACs sorting or positive selection using CD14 micobeads (greater than 90% purity; Miltenyi Biothech). Purified monocytes were then cultured in RPMI 1640 supplemented with 10% heat-inactivated FBS, 20 mM HEPES, 0.5 mM sodium pyruvate. 100 U/ml penicillin, 100 μg/ml streptomycin, MeM amino acids, Glutamax, MeM nonessential amino acids, 55 μM 2-mercaptoethanol (Invitrogen). GM-CSF+IL-4 moDC were made by culturing CD14 MN in 50 ng/ml (1500 U/ml) IL-4 and 50 ng/ml (750 U/ml) GM-CSF (R&D systems) for 6 d. GM-CSF+IL-15 (R&D Systems) moDC were made by culturing CD14 MN in 100 ng/ml (1500 U/ml) GM-CSF+200 ng/ml IL-15. Half of the media was removed after 3 d and replaced with complete RPMI containing cytokines. After 6 d of incubation, moDC were stained with CD14-PerCp (Miltenyi Biotech), HLA-DR alexa700 (eBioscience), CD80-FITC (BD Bioscience) and CD86-APC (Biolegend) to confirm differentiation.\n(§2) Six day moDC were cultured overnight in media alone or activated with 10 μg/ml polyI:C or 0.1 ug/ml LPS (Invivogen)+50 ng/ml soluble HEK-derived CD40L (R&D Systems). Following overnight incubation, moDC were washed three times with HBSS and co-cultured at 2:1 effector:target ratio (10,000 T cells:5000 moDC) with CD8 HBs183-91T or HBs171-80-specific TCR redirected T cells for IFN-γ elispot. […]"}, "healthy donor CD14 MN": {"tested_on": "healthy donor CD14 MN", "test": "Cross-presentation by healthy donor CD14 MN loaded with HBV antigen at day zero and differentiated to moDC, IFN-γ elispot", "conditions": "differentiation alone, antigen captured on day zero", "procedure": "as §1, §2"}}, "note": "“Also recorded” adds a separate entry of the source.", "data": [{"molecule": "IFN-γ: cytokine, 1000 U/ml for APC activation", "values": [{"measurement": "cross-presentation of circulating HBsAg (T cell activation)", "setting": "[1]", "result": "T cell activation was not observed"}]}, {"molecule": "Polyinosinic-polycytidylic acid [polyI:C, reference compound]", "values": [{"measurement": "cross-presentation of exogenously loaded recombinant HBsAg by CD141 DC", "setting": "[1]; CD141 DC loaded with rHBsAg and stimulated", "result": "efficiently cross-presented recombinant HBsAg"}, {"measurement": "activation of CD8 T cells by activated CD141 DC directly ex vivo", "setting": "[1]; CD141 DC of chronic HBV patients, in vivo captured HBsAg", "result": "neither non-activated nor polyI:C activated CD141 DC from chronic HBV patients stimulated CDS T cells; also recorded: neither non-activated nor polyI:C activated CD141 DC from chronic HBV patients activated CD8 T cells"}, {"measurement": "effect of moDC activation on T cell response", "setting": "[2]", "result": "increase the T cell response"}]}, {"molecule": "granulocyte-macrophage colony-stimulating factor [GM-CSF]", "values": [{"measurement": "cross-presentation of HBV antigen to virus-specific CD8 T cells after differentiation", "setting": "healthy donor CD14 MN; 3 d", "result": "resulted in cross-presentation of HBV antigen"}]}, {"molecule": "interferon-α [IFN-α]", "values": [{"measurement": "cross-presentation of circulating HBsAg (T cell activation)", "setting": "[1]", "result": "T cell activation was not observed"}, {"measurement": "activation of HBsAg-specific T cells by activated pDC ex vivo", "setting": "[1]; pDC of chronic HBV patients, in vivo captured HBsAg", "result": "Neither resting pDC nor pDC activated with a panel of TLR ligands and IFN-α activated HBsAg-specific T cells; also recorded: none of these conditions resulted in HBsAg-specific T cell activation"}]}, {"molecule": "IL-32: cytokine, 100 ng/ml IL-32 for 6 d (protein, UniProt P24001 31-234, looked up) Interleukin-32: AWVSACDTEDTVGHLGPWRDKDPALWCQLCLSSQHQAIERFYDKMQNAESGRGQVMSSLAELEDDFKEGYLETVAAYYEEQHPELTPLLEKERDGLRCRGNRSPVPDVEDPATEEPGESFCDKVMRWFQAMLQRLQTWWHGVLAWVKEKVVALVHAVQALWKQFQSFCCSLSELFMSSFQSYGAPRGDKEELTPQKCSEPQSSK", "values": [{"measurement": "cross-presentation of HBV antigen to virus-specific CD8 T cells after differentiation", "setting": "healthy donor CD14 MN; 6 d", "result": "resulted in cross-presentation of HBV antigen"}]}]}
